IC50 data for 2 compounds are collected here from ChEMBL document CHEMBL4680271, “COVID-19: Drug Targets and Potential Treatments” (J Med Chem, 2020).

This experiment can be described thus: Inhibition of CTSL/CTSB in 293T/17 cells harboring ACE2 assessed as reduction in SARS-CoV-2 S pseudovirions entry into host cell incubated for 2 days by luciferase method. The class given is cell-based. The conditions noted are these: Severe acute respiratory syndrome-related coronavirus, HEK293T/17, 48 h.

With `CC(C)(C)N1CCN(C(=O)N[C@@H](Cc2ccccc2)C(=O)N[C@H](/C=C/S(=O)(=O)c2ccccc2)CCc2ccccc2)CC1`, the half-inhibitory concentration (IC50) (commonly the concentration that inhibits the measured activity by half) is 80 pM.

Consider `CN1CCN(C(=O)N[C@@H](Cc2ccccc2)C(=O)N[C@H](/C=C/S(=O)(=O)c2ccccc2)CCc2ccccc2)CC1` [K-777], for which the 50% inhibitory concentration (IC50) came out at 320 pM.
